Test results: patent publication US11254668B2, “Pyrazolo[1,5-A]pyrazin-4-yl and related derivatives” (Pfizer Inc., priority 2017, dated 2022)
Read-outs that look alike come from different tables or passages of the source.

How the values were obtained:
[1] = target: TYK2 (Homo sapiens (Human), UniProt P29597); test: JAK Caliper Enzyme Assay at 1 mM ATP, TYK2; assay type: biochemical
Summary of the method: (§1)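 First, compound was incubated at room temperature with recombinant human kinase domain, a synthetic peptide and 1 mM ATP until 20–30% of peptide was phosphorylated. Next, EDTA stopped the reaction. Finally, electrophoretic separation quantified product, and percent effect relative to controls was plotted against concentration.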

[2] = target: JAK2 (Homo sapiens (Human), UniProt O60674); test: JAK Caliper Enzyme Assay at 1 mM ATP, JAK2; assay type: biochemical
Summary of the method: as §1

[3] = tested on: IL-12 signaling (TYK2 and JAK2), STAT4 phosphorylation; test: Human Whole Blood IL-12 Induced STAT4 Phosphorylation Assay; assay type: cell-based; details: IL-12 5 ng/mL, pSTAT4 in lymphocytes by flow cytometry
Description: Selected compounds were assessed for their ability to inhibit IL-12 signaling in a human whole blood flow cytometry assay. IL-12 signals through TYK2 and JAK2.
Human Whole Blood IL-12 Induced STAT4 Phosphorylation Assay
Test articles were prepared as 30 mM stocks in DMSO. An 11-point 2.5 dilution series was created in DMSO with a top concentration of 10 mM. Further dilution was done by adding 4 μL of the above test article solutions into 96 μL of PBS with a top concentration of 400 μM. Human whole blood was collected from healthy donors via vein puncture into Vacutainer collection tubes containing sodium heparin (Catalog No. 366480; Becton Dickinson, Franklin Lakes, N.J.). Blood was warmed to 37° C. prior to use. Human whole blood was aliquoted ([…]) in 96-well, deep-well, V-bottom plates and treated with compounds at 11 different concentrations (0.2% DMSO final) at 37° C. for 60 minutes. This was followed by a challenge with IL-12 ([…]; final, 5 ng/mL) for 15 minutes. Samples were treated with warm 1× Lyse/Fix buffer ([…]) to terminate activation and further incubated at 37° C. for 20 minutes to lyse red blood cells. Plates were centrifuged at 300×g for 5 minutes, supernatant was aspirated, and cells were washed with […] of staining buffer (PBS containing 0.5% fetal bovine serum and 0.01% sodium azide). The washed cell pellets were resuspended with […] of pre-chilled 90% methanol, and incubated at 4° C. for 30 minutes. Plates were centrifuged at 300×g for 5 minutes, supernatant containing 90% methanol was aspirated, and cells were washed with […] of staining buffer. Cell pellets were resuspended in staining buffer containing anti-pSTAT4-AlexaFluor647 (1 to 150 dilution, […]), and incubated at room temperature in the dark overnight.
Samples were transferred to 96-well U-bottom plates and flow cytometric analysis was performed on a FACSCalibur or LSRFortessa equipped with a HTS plate loader (BD Biosciences). The lymphocyte population was gated for histogram analysis of pSTAT4. Background fluorescence was defined using unstimulated cells and a gate was placed at the foot of the peak to include ˜0.5% gated population. The histogram statistical analysis was performed using CellQuestÔ Pro version 5.2.1 (BD Biosciences) or FACSDiva version 6.2 (BD Biosciences) software. Relative fluorescence unit (RFU), which measures the level of phospho STAT4, was calculated by multiplying the percent positive population and its mean fluorescence. Data from 11 compound concentrations (singlicate at each concentration) was normalized as a percentage of control based on the formula: % of Control=100'(A−B)/(C−B) where A is the RFU from wells containing compound and IL-12, B is the RFU from wells without IL-12 and compound (minimum fluorescence) and C is the RFU from wells containing only IL-12 (maximum fluorescence). Inhibition curves and IC50 values were determined using the Prism version 5 software (GraphPad, La Jolla, Calif.).

[4] = target: JAK1 (Homo sapiens (Human), UniProt P23458); test: JAK Caliper Enzyme Assay at 1 mM ATP, JAK1; assay type: biochemical
Summary of the method: (§2)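 Recombinant human kinase domains phosphorylate a fluorescent synthetic peptide at 1 mM ATP, room temperature, with enzyme and time tuned for 20-30% conversion; EDTA-stopped. Product/substrate separated by microfluidic mobility shift; percent effect versus DMSO and positive controls fitted to IC50 (nM).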

[5] = target: JAK3 (Homo sapiens (Human), UniProt P52333); test: JAK Caliper Enzyme Assay at 1 mM ATP, JAK3; assay type: biochemical
Summary of the method: as §2

Chain of TYK2 (P29597 897-1176): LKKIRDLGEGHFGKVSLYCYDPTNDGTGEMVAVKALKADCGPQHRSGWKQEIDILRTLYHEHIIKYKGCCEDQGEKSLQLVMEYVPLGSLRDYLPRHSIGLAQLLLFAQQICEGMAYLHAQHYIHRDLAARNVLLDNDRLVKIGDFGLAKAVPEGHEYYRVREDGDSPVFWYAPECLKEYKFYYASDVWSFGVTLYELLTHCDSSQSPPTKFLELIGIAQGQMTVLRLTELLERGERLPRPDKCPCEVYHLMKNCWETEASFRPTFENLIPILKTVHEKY
Chain of JAK2 (O60674 849-1124): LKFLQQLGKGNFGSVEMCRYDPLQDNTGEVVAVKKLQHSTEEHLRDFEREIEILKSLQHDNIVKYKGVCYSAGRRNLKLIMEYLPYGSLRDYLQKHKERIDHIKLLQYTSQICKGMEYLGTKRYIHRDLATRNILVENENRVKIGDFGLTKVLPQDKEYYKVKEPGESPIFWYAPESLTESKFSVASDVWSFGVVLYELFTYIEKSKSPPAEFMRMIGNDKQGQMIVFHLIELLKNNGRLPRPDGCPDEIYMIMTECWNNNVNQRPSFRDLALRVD
Chain of JAK1 (P23458 875-1153): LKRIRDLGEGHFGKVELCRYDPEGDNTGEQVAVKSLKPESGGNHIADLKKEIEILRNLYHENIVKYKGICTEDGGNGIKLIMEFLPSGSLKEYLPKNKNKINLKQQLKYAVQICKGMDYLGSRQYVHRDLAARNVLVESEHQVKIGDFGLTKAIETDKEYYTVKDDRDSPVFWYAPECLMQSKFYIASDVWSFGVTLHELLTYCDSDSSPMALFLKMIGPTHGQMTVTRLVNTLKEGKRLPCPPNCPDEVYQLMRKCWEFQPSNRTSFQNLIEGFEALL
Chain of JAK3 (P52333 822-1111): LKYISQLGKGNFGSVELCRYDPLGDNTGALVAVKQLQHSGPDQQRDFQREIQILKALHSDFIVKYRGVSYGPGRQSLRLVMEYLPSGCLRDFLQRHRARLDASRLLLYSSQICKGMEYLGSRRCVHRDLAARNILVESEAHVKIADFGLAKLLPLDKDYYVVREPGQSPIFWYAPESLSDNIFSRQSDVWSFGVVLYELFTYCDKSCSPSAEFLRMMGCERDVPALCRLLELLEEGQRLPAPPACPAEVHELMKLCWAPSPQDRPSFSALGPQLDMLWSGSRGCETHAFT

IC50 [1] [nM] | IC50 [2] [nM] | IC50 [3] [nM] | IC50 [4] [nM] | IC50 [5] [nM] | IC50 ([3]; Lymphocyte) [nM] | IC50 ([1]; JAK Caliper enzyme assay) [nM] | IC50 ([2]; JAK Caliper enzyme assay) [nM] | IC50 ([4]; JAK Caliper enzyme assay) [nM] | IC50 ([5]; JAK Caliper enzyme assay) [nM] | Structure (SMILES)
8 | 21 | 76 | 14 | 1240 | – | – | – | – | – | N#CC[C@]1(n2ccc(-c3nc(-c4cc(N)[nH]n4)cc4ncccc34)n2)C[C@H](C#N)C1 [Example 41, trans-3-{3-[7-(5-amino-1H-pyrazol-3-yl)-1,6-naphthyridin-5-yl]-1H-pyrazol-1-yl}-3-(cyanomethyl)cyclobutanecarbonitrile]
– | – | 177 | – | – | – | 25 | 204 | 1680 | > 10000 | Cn1cc(-c2cc(-c3cnn([C@]4(CC#N)C[C@H](C#N)C4)c3)n3ccnc3c2)cn1 [Example 458, cis-3-(cyanomethyl)-3-{4-[7-(1-methyl-1H-pyrazol-4-yl)imidazo[1,2-a]pyridin-5-yl]-1H-pyrazol-1-yl}cyclobutanecarbonitrile]
7 | 13 | 40 | 55 | 873 | – | – | – | – | – | Cn1cc(-c2cc3ncccc3c(-c3ccn([C@]4(CC#N)C[C@H](C#N)C4)n3)n2)cn1 [Example 103, cis-3-(cyanomethyl)-3-{3-[7-(1-methyl-1H-pyrazol-4-yl)-1,6-naphthyridin-5-yl]-1H-pyrazol-1-yl}cyclobutanecarbonitrile]
14 | 104 | 76 | 172 | 8610 | – | – | – | – | – | N#CC[C@H]1C[C@@](CC#N)(n2ccc(-c3nc(-c4cn[nH]c4)cc4ncccc34)n2)C1 [Example 78, 2,2′-(cis-1-{3-[7-(1H-pyrazol-4-yl)-1,6-naphthyridin-5-yl]-1H-pyrazol-1-yl}cyclobutane-1,3-diyl)diacetonitrile]
503 | 3770 | – | > 10000 | > 10000 | – | – | – | – | – | N#CC[C@]1(n2ccc(-c3nc(-c4cc(N)cnn4)cc4ncccc34)n2)C[C@@H](C#N)C1 [Example 242, cis-3-{3-[7-(5-aminopyridazin-3-yl)-1,6-naphthyridin-5-yl]-1H-pyrazol-1-yl}-3-(cyanomethyl)cyclobutanecarbonitrile]
81 | 362 | – | 2580 | > 10000 | – | – | – | – | – | CS(=O)(=O)c1ccc(-c2cc3ncccc3c(-c3ccn([C@]4(CC#N)C[C@@H](C#N)C4)n3)n2)cn1 [Example 208, trans-3-(cyanomethyl)-3-(3-{7-[6-(methylsulfonyl)pyridin-3-yl]-1,6-naphthyridin-5-yl}-1H-pyrazol-1-yl)cyclobutanecarbonitrile]
81 | 2980 | – | 8190 | > 10000 | – | – | – | – | – | Cc1cc(-c2cc(-c3cc[nH]n3)cc3ncccc23)nn1C1(CC#N)CN(S(C)(=O)=O)C1 [Example 293, [3-{5-methyl-3-[7-(1H-pyrazol-3-yl)quinolin-5-yl]-1H-pyrazol-1-yl}-1-(methylsulfonyl)azetidin-3-yl]acetonitrile]
1060 | 5740 | – | 7100 | > 10000 | – | – | – | – | – | C[C@]1(C#N)C[C@](CC#N)(n2ccc(-c3nc(-c4cc[nH]n4)cc4ncccc34)n2)C1 [Example 36, trans-3-(cyanomethyl)-1-methyl-3-{3-[7-(1H-pyrazol-3-yl)-1,6-naphthyridin-5-yl]-1H-pyrazol-1-yl}cyclobutanecarbonitrile]
7550 | > 10000 | – | > 10000 | > 10000 | – | – | – | – | – | Cc1onc(N)c1-c1cc2ncccc2c(-c2ccn(C3(CC#N)CN(S(C)(=O)=O)C3)n2)n1 [Example 147, [3-{3-[7-(3-amino-5-methyl-1,2-oxazol-4-yl)-1,6-naphthyridin-5-yl]-1H-pyrazol-1-yl}-1-(methylsulfonyl)azetidin-3-yl]acetonitrile]

Continued, molecule first:

Structure (SMILES) | IC50 [1] [nM] | IC50 [2] [nM] | IC50 [3] [nM] | IC50 [4] [nM] | IC50 [5] [nM] | IC50 ([3]; Lymphocyte) [nM] | IC50 ([1]; JAK Caliper enzyme assay) [nM] | IC50 ([2]; JAK Caliper enzyme assay) [nM] | IC50 ([4]; JAK Caliper enzyme assay) [nM] | IC50 ([5]; JAK Caliper enzyme assay) [nM]
N#CCN1CC(CC#N)(n2ccc(-c3nc(-c4cnn(C5COC5)c4)cc4ncccc34)n2)C1 [Example 120, 2,2′-[3-(3-{7-[1-(oxetan-3-yl)-1H-pyrazol-4-yl]-1,6-naphthyridin-5-yl}-1H-pyrazol-1-yl)azetidine-1,3-diyl]diacetonitrile] | 15 | 28 | – | 521 | 8520 | 44 | – | – | – | –
N#CC[C@]1(n2ncc(-c3cc(-c4cn[nH]c4)cc4ncccc34)n2)C[C@H](C#N)C1 [Example 315, trans-3-(cyanomethyl)-3-{4-[7-(1H-pyrazol-4-yl)quinolin-5-yl]-2H-1,2,3-triazol-2-yl}cyclobutanecarbonitrile] | 19 | 215 | 123 | 524 | > 10000 | – | – | – | – | –
N#CCC1(n2ncc(-c3cc(-c4ncccn4)cc4ncccc34)n2)CC(C#N)C1 (stereo not drawn) [Example 390, trans-3-(cyanomethyl)-3-{4-[7-(pyrimidin-2-yl)quinolin-5-yl]-2H-1,2,3-triazol-2-yl}cyclobutanecarbonitrile] | – | – | – | – | – | – | 1280 | > 10000 | > 10000 | > 10000
N#CC[C@]1(n2ncc(-c3cc(-c4ccc(N)nc4)cc4ncccc34)n2)C[C@@H](C#N)C1 [Example 366, cis-3-{4-[7-(6-aminopyridin-3-yl)quinolin-5-yl]-2H-1,2,3-triazol-2-yl}-3-(cyanomethyl)cyclobutanecarbonitrile] | 26 | 167 | – | 520 | 8160 | – | – | – | – | –
N#CCC1(n2ccc(-c3nc(-c4ccn(C5COC5)n4)cc4ncccc34)n2)CN(CC(F)(F)F)C1 [Example 57, [3-(3-{7-[1-(oxetan-3-yl)-1H-pyrazol-3-yl]-1,6-naphthyridin-5-yl}-1H-pyrazol-1-yl)-1-(2,2,2-trifluoroethyl)azetidin-3-yl]acetonitrile] | 257 | 2350 | – | > 10000 | > 10000 | – | – | – | – | –
CCn1cc(-c2cc3ncccc3c(-c3ccn(C4(CC#N)CN(S(C)(=O)=O)C4)n3)n2)ccc1=O [Example 251, [3-{3-[7-(1-ethyl-6-oxo-1,6-dihydropyridin-3-yl)-1,6-naphthyridin-5-yl]-1H-pyrazol-1-yl}-1-(methylsulfonyl)azetidin-3-yl]acetonitrile] | 48 | 229 | – | 541 | > 10000 | – | – | – | – | –
Cc1cncc(-c2cc3ncccc3c(-c3ccn(C4(CC#N)CN(CC(F)(F)F)C4)n3)n2)c1 [Example 173, [3-{3-[7-(5-methylpyridin-3-yl)-1,6-naphthyridin-5-yl]-1H-pyrazol-1-yl}-1-(2,2,2-trifluoroethyl)azetidin-3-yl]acetonitrile] | 1880 | 7880 | – | > 10000 | > 10000 | – | – | – | – | –
Cc1cc(-c2nc(-c3ccn[nH]3)cc3ncccc23)nn1C1(CC#N)CN(S(C)(=O)=O)C1 [Example 267, [3-{5-methyl-3-[7-(1H-pyrazol-5-yl)-1,6-naphthyridin-5-yl]-1H-pyrazol-1-yl}-1-(methylsulfonyl)azetidin-3-yl]acetonitrile] | 57 | 843 | – | 2950 | > 10000 | – | – | – | – | –
